Values joined by “and” are separate entries in the source; they are usually repeats but may differ in a detail not shown here. Equal values may be shown once.
How the values were obtained:
P. aeruginosa PA14 = experiment: In vivo PA14 murine thigh infection; conditions: neutropenic CD-1 mice, 24 h post infection; fluorofolin 25 mg kg^−1 subcutaneous and/or SMX 100 mg kg^−1 intraperitoneal at 1 and 12 h; one value per mouse
From the text: For P. aeruginosa thigh infection model and maximum tolerated dose (MTD) studies, care and handling of female 5–6-week-old CD-1 conformed to Institutional Animal Care and Use Committee (IACUC) policies as carried out at the University of North Texas Health Science Center (Fort Worth, Texas) under UNTHSC IACUC-approved protocol nos. IACUC-2021-0003 and IACUC-2020-0039. Rodents were fed either base chow (Envigo) or base diet supplemented with 1.8 g kg^−1 thymidine (Sigma T9250) starting at 2 days before infection. All procedures were conducted in accordance with the UNTHSC IACUC-approved protocol. Animals were housed in rooms undergoing 10–15 air changes per hour. Air provided to the animal rooms was controlled for temperature and humidity and is fully monitored 24 h a day. Air pressure was balanced according to room use. Lighting was controlled in individual rooms by automatic timers with a standard 12 h on, 12 h off cycle.
Female 5–6-week-old CD-1 mice were rendered neutropenic by intraperitoneal cyclophosphamide treatment (Cytoxan) before this study. On day 0, mice were infected intramuscularly with 5.33 log c.f.u. per thigh PA14. Mice were treated subcutaneously with fluorofolin at 1 and 12 h post infection. For co-treatment, mice were treated with SMX intraperitoneally at 1 and 12 h post infection. […] In vivo efficacy was evaluated by the UNTHSC.

PA14 = experiment: Checkerboard assay fluorofolin / sulfamethoxazole; format: cell-based, Pseudomonas aeruginosa; conditions: PA14, Fluorofolin 0 ug/mL
Procedure: Cells were seeded in a similar manner as described above for MIC calculations. […] Fractional inhibitory concentrations (FICs) were calculated as [[…], where [fluorofolin] and [SMX] are the concentrations of compounds in a given well, which were divided by the concentration of drug at the MIC for each compound.

## Cc1cc(NS(=O)(=O)c2ccc(N)cc2)no1 [SMX, Sulfamethoxazole, reference compound]
P. aeruginosa PA14
  PA14 load in thigh: 8.8 log 10(CFU/ mouse) and 8.33 log 10(CFU/ mouse) and 8.57 log 10(CFU/ mouse) and 7.94 log 10(CFU/ mouse)
PA14; SMX 625.00 ug/mL
  FIC index: 1
PA14; SMX 1250.00 ug/mL
  FIC index: 2
